Reference: patent US8119671B2, “Isoxazoline-substituted benzamide compound and pest control agent” (Nissan Chemical Industries, Ltd., priority 2007, dated 2012)

What was measured:
Assay type in all cases: in vivo
Helicoverpa armigera = assay: Test Example 17: Mortality Test for Helicoverpa armigera (Comparative Test 1); conditions: 144 h, 3-instar larvae, after 6 days; for mortality at 3.3 ppm: concentration 3.3 ppm; for mortality at 10 ppm: concentration 10 ppm; for mortality at 33 ppm: concentration 33 ppm; for mortality at 100 ppm: concentration 100 ppm; for mortality at 0.1 ppm: concentration 0.1 ppm; for mortality at 0.3 ppm: concentration 0.3 ppm; for mortality at 1 ppm: concentration 1 ppm
Experimental: 10% emulsifiable concentrates of the compound of the present invention and a comparative compound were diluted with water containing a spreader to prepare drug solutions in a predetermined concentration. In these drug solutions, a leaf of Canarium album was immersed for about 10 seconds and was air-dried and then put into a petri dish. In the petri dish, seven 3-instar larvae of Helicoverpa armigera per petri dish were released and the petri dish was capped with a lid having pores and stored in a thermostat room of 25° C. After 2 days of the treatment, an artificial feed (1 cm^3) was added into the petri dish. The number of killed larvae after 6 days was measured and the mortality was calculated from the following calculation formula: Mortality (%)=(number of killed larvae/number of released larvae)×100. Here, the test was carried out with two replications.

Homona magnanima = assay: Test Example 3: Mortality Test for Homona magnanima; conditions: 144 h
Experimental: (§1) A 10% emulsifiable concentrate of the compound of the present invention (depending on the type of the compound, a 10% wettable powder was subjected to the test) was diluted with water containing a spreader to prepare a drug solution in a concentration of 100 ppm. In this drug solution, a leaf of canarium album was immersed for about 10 seconds and was air-dried and then put into a petri dish. In the petri dish, five 2 instar larvae of Homona magnanima per petri dish were released and the petri dish was capped and stored in a thermostat room of 25° C. The number of killed larvae after 6 days was measured and the mortality was calculated from the same calculation formula as that in Test Example 1. Here, the test was carried out with two replications.

Bemisia argentifolii = assay: Test Example 9: Mortality Test for Bemisia argentifolii; conditions: in Solanum lycopersicum, 144 h
Experimental: (§2) In a styrol cup having an inner diameter of 7 cm, a wet filtration paper was laid, and on the paper, a cut-out leaf of tomato on which Bemisia argentifolii laid eggs (10 eggs/leaf) was laid. A 10% emulsifiable concentrate of the compound of the present invention (depending on the type of the compound, a 10% wettable powder was subjected to the test) was diluted with water containing a spreader to prepare a drug solution in a concentration of 500 ppm. The drug solution was dusted using a rotary dusting tower in an amount of 2.5 mL per styrol cup and the cup was capped and stored in a thermostat room of 25° C. The number of killed larvae after 6 days was measured and the mortality was calculated from the same calculation formula as that in Test Example 1. Here, the test was carried out with two replications.

Myzus persicae = assay: Test Example 10: Mortality Test for Myzus persicae; conditions: 144 h
Experimental: In a glass petri dish having an inner diameter of 3 cm, a wet absorbent cotton was laid, and on the cotton, a leaf of canarium album cut out so as to have the same diameter as the inner diameter of the petri dish was laid, followed by releasing 4 apterous imagines of Myzus persicae on the leaf. After one day, 10% emulsifiable concentrate of the compound of the present invention (depending on the type of the compound, a 10% wettable powder was subjected to the test) was diluted with water containing a spreader to prepare a drug solution in a concentration of 500 ppm. The drug solution was dusted using a rotary dusting tower (2.5 mg/cm^2) and the petri dish was capped and stored in a thermostat room of 25° C. The number of killed imagines after 6 days was measured and the mortality was calculated from the same calculation formula as that in Test Example 1. Here, the test was carried out with two replications.

Planococcus kraunhiae = assay: Test Example 11: Mortality Test for Planococcus kraunhiae; conditions: 144 h
Experimental: as §2, with “a” for “a cut-out”, “kidney bean cut out so as to have the same diameter as the inner diameter of the cup” for “tomato on which Bemisia argentifolii laid eggs (10 eggs/leaf)”, “laid, followed by inoculating ten 1 instar larvae of Planococcus kraunhiae per leaf to the leaf.” for “laid.”

Liriomyza trifolii = assay: Test Example 13: Mortality Test for Liriomyza trifolii; conditions: 144 h, drug solution 500 ppm, kidney bean leaf with eggs immersed, after 6 days
Experimental: A 10% emulsifiable concentrate of the compound of the present invention (depending on the type of the compound, a 10% wettable powder was subjected to the test) was diluted with water containing a spreader to prepare a drug solution in a concentration of 500 ppm. In this drug solution, a leaf of kidney bean on which Liriomyza trifolii laid eggs (10 eggs/leaf) and which was cut out to a diameter of 7 cm was immersed for about 10 seconds and was air-dried and then laid on a wet filtration paper laid in a styrol cup having an inner diameter of 7 cm. The styrol cup was capped and stored in a thermostat room of 25° C. The number of killed larvae after 6 days was measured and the mortality was calculated from the same calculation formula as that in Test Example 1. Here, the test was carried out with two replications.

[1] = system: Frankliniella occidentalis; assay: Test Example 18: Mortality Test for Frankliniella occidentalis (Comparative Test 2); conditions: 48 h
Experimental: In a styrol cup having an inner diameter of 7 cm, a wet filtration paper was laid, and on the paper, a leaf of kidney bean cut out so as to have the same diameter as the inner diameter of the cup was laid, followed by inoculating ten 1 instar larvae of Frankliniella occidentalis per leaf to the leaf. 10% emulsifiable concentrates of the compound of the present invention and a comparative compound were diluted with water containing a spreader to prepare drug solutions in a predetermined concentration. The drug solutions were dusted using a rotary dusting tower in an amount of 2.5 mL per styrol cup, and the cup was capped and stored in a thermostat room of 25° C. The number of killed larvae after 2 days was measured and the mortality was calculated from the following calculation formula: Mortality (%)=(number of killed larvae/number of released larvae)×100. Here, the test was carried out with two replications.

Plutella xylostella = assay: Test Example 1: Mortality Test for Plutella xylostella; conditions: 144 h
Experimental: as §1, with “10” for “100”, “Plutella xylostella” for “Homona magnanima”, “following” for “same”, “formula: Mortality (%)=(number of killed larvae/number of released larvae)×100.” for “formula as that in Test Example 1.”

Spodoptera litura = assay: Test Example 2: Mortality Test for Spodoptera litura; conditions: 144 h
Experimental: as §1, with “10” for “100”, “Spodoptera litura” for “Homona magnanima”

With `COC(=NC(=O)c1ccc(C2=NOC(c3cc(Cl)cc(Cl)c3)(C(F)(F)F)C2)cc1C)SC` (centres unmarked) [Comparative compound B, reference compound] the mortality at 3.3 ppm (Helicoverpa armigera) was 35.7%, the mortality at 10 ppm (Helicoverpa armigera) was 71.4% and the mortality at 33 ppm (Helicoverpa armigera) was 85.7%. For the same compound, the mortality at 100 ppm (Helicoverpa armigera) was 100%.

`CNC(=NC(=O)c1ccc(C2=NOC(c3cc(Cl)cc(Cl)c3)(C(F)(F)F)C2)cc1C)OC` (centres unmarked) [No. 3-001, N-[Methoxy(methylamino)methylidene]-4-[5-(3,5-dichlorophenyl)-5-trifluoromethyl-4,5-dihydroisoxazole-3-yl]-2-methyl benzoic acid amide] was tested, and the mortality at 100 ppm (Homona magnanima) was at least 80%, the mortality at 500 ppm (Bemisia argentifolii) was at least 80% and the mortality at 500 ppm (Myzus persicae) was at least 80%. It also gave a mortality at 500 ppm (Planococcus kraunhiae) of at least 80%, a mortality at 0.1 ppm (Helicoverpa armigera) of 0% and a mortality at 0.3 ppm (Helicoverpa armigera) of 21.4%. It also gave a mortality at 1 ppm (Helicoverpa armigera) of 71.4%, a mortality at 3.3 ppm (Helicoverpa armigera) of 100% and a mortality at 10 ppm (Helicoverpa armigera) of 100%.

In the case of `CSC(N)=NC(=O)c1ccc(C2=NOC(c3cc(Cl)cc(Cl)c3)(C(F)(F)F)C2)cc1C` (centres unmarked) [No. 2-010, N-(Amino(methylthio)methylidene)-4-(5-(3,5-dichlorophenyl)-5-trifluoromethyl-4,5-dihydroisoxazole-3-yl)-2-methyl benzoic acid amide], the mortality at 100 ppm (Homona magnanima) is reported as at least 80% and the mortality at 500 ppm (Liriomyza trifolii) is reported as at least 80%.

Compound `O=C(N[C@H]1C[C@@H]1c1ccccc1)c1ccc(C2=NOC(c3ccc(Cl)c(Cl)c3)(C(F)(F)F)C2)cc1` (some centres unmarked) [Comparative compound C] has a mortality at 3.3 ppm [1] of 0%, a mortality at 10 ppm [1] of 0% and a mortality at 33 ppm [1] of 0%. The mortality at 100 ppm [1] was 0%.

In the case of `CCNC(=O)NC(=O)c1ccc(C2=NOC(c3cc(Cl)cc(Cl)c3)(C(F)(F)F)C2)cc1C` (centres unmarked) [Comparative compound D], the mortality at 3.3 ppm [1] is reported as 0%, the mortality at 10 ppm [1] is reported as 45.7% and the mortality at 33 ppm [1] is reported as 100%. The mortality at 100 ppm [1] was 100%.

`CNC(=O)NC(=O)c1ccc(C2=NOC(c3cc(Cl)cc(Cl)c3)(C(F)(F)F)C2)cc1C` (centres unmarked) [Comparative compound A, reference compound] showed a mortality at 3.3 ppm (Helicoverpa armigera) of 21.4%, a mortality at 10 ppm (Helicoverpa armigera) of 92.9% and a mortality at 33 ppm (Helicoverpa armigera) of 100%. For the same compound, the mortality at 100 ppm (Helicoverpa armigera) was 100%.

Work on `CNC(N)=NC(=O)c1ccc(C2=NOC(c3cc(Cl)cc(Cl)c3)(C(F)(F)F)C2)cc1C` (centres unmarked) [No. 2-012, N-[Amino(methylamino)methylidene]-4-[5-(3,5-dichlorophenyl)-5-trifluoromethyl-4,5-dihydroisoxazole-3-yl]-2-methyl benzoic acid amide] yielded a mortality at 100 ppm (Plutella xylostella) of at least 80% and a mortality at 100 ppm (Spodoptera litura) of at least 80%.

For `COC(N)=NC(=O)c1ccc(C2=NOC(c3cc(Cl)cc(Cl)c3)(C(F)(F)F)C2)cc1C` (centres unmarked) [No. 2-003, N-[Amino(methoxy)methylidene]-4-[5-(3,5-dichlorophenyl)-5-trifluoromethyl-4,5-dihydroisoxazole-3-yl]-2-methyl benzoic acid amide], the mortality at 100 ppm (Homona magnanima) was at least 80%, the mortality at 0.1 ppm (Helicoverpa armigera) was 57.1% and the mortality at 0.3 ppm (Helicoverpa armigera) was 85.7%. It also gave a mortality at 1 ppm (Helicoverpa armigera) of 100%, a mortality at 3.3 ppm (Helicoverpa armigera) of 100% and a mortality at 10 ppm (Helicoverpa armigera) of 100%.
